Source: patent publication US9133165B2, “Sulfonic acid salts of heterocyclylamide-substituted imidazoles” (AICURIS GMBH & CO. KG, priority 2011, dated 2015)
≈ marks a conversion by molar mass, not a printed value. Read-outs that look alike come from different tables or passages of the source.

Experiments:
[1] = Solubility studies in H2O; type: physicochemical; conditions: water, thermodynamic from solid, 20 mg in 1 ml of H2O, stirred overnight at 25° C., filtrate analyzed by HPLC
Procedure: 1 ml of H2O each is added, and the HPLC glasses are sealed. The suspensions that are produced are stirred overnight at 25° C. To estimate the amount of dissolved substance, the suspensions are filtered via pipette microfilters, and the filtrates that are obtained are diluted 1:4 and analyzed by means of HPLC. The HPLC analysis was carried out on a […] Luna RP18 (100A)-column with the following dimensions: 5 μm 50×4.6 mm with use of an isocratic mixture of acetonitrile and H2O+0.1% TFA in the ratio 3:7.

[2] = test system: HCMV AD 169 RV-HG; assay: HCMV fluorescence reduction test; type: cell-based, human cytomegalovirus
Procedure: The test compounds are used as 50 millimolar (mM) solutions in dimethyl sulfoxide (DMSO). As reference compounds, e.g., Ganciclovir®, Foscarnet®, Cidofovir® or else the compound of Example 9A can be used. One day before the start of the test, 1.5×10^4 human foreskin fibroblasts (NHDF cells)/well are sowed in 200 μl of cell culture medium in the wells B2-G11 of 96-well plates (black with a translucent bottom). The wells at the edge position of each 96-well plate are filled only with 200 μl of medium to avoid edge effects. On the day of the test, the cell culture medium is suctioned off from the wells B2-G11 of each 96-well plate and replaced by 100 μl of virus suspension (multiplicity of infection (MOI): 0.1-0.2). The virus that is used is a recombinant HCMV, which has integrated an expression cassette for the green fluorescence protein (GFP) in the virus genome (HCMV AD 169 RV-HG, E. M. Borst, K. Wagner, A. Binz, B. Sodeik, and M. Messerle, 2008, J. Virol. 82: 2065-2078). After an incubation time of 2 hours at 37° C. and 5% CO2, the virus inoculate is suctioned off, and all wells except for the wells in Column 3 are filled with 200 μl of cell culture medium. Column 2 is not further treated and serves as a virus control. The wells in Column 3 are filled in each case in double determination with 300 μl of test substance (diluted in cell culture medium). The concentration of the respective antiviral substance in Column 3 is ˜ the 27× concentration of the EC50 value that is expected in each case. The test substance in Column 3 is diluted in 8 steps 1:3 over the 96-well plate by in each case 100 μl of a column being transferred into the right column in each case—and being mixed there with the existing 200 μl of cell culture medium. […] Then, the GFP intensity of each well of a 96-well plate is determined by means of a fluorescence reading device (FluoBox; Bayer Technology Services GmbH; Filter settings: GFP, Ex 480 nm, Em 520 nm). The EC50 of an anti-HCMV substance can be determined from the thus obtained measurement values: […]

[3] = Solubility under simulated conditions in the human stomach; type: physicochemical; conditions: aqueous sodium chloride solution (0.2% by weight), pH 1.2 with hydrochloric acid, stirred for 5 hours
Procedure: The samples were then treated as described above, and the amount of free base in solution is determined by means of HPLC.

[4] = Hygroscopy; type: physicochemical; conditions: approximately 46% relative atmospheric humidity and 24° C., storage time approximately 2 days
Procedure: By storing the salt of Example 1 in pure form at approximately 46% relative atmospheric humidity and 24° C., the hygroscopy of the salts according to the invention was measured.

[5] = Human betaherpesvirus 5, AD169, NHDF, 168 h, read-out: EC50 (GFP-RA), virus strain AD169 RV-HG in NHDF cells, 7 days, GFP fluorescence

Compound | solubility [1] [µg/mL] | EC50 ([2]; read-out: EC50 (GFP-RA), virus strain AD169 RV-HG in NHDF cells, 7 days, GFP fluorescence, dimesylate) [nM] | Amount of Dissolved Free Base [3] [mg/mL] | weight increase (hygroscopy) [4] | EC50 [2, 5] [nM]
CS(=O)(=O)O.CS(=O)(=O)O.Cc1ccc(N2CCN(C(=O)c3nc(NC(=O)Nc4ccc(OC(F)(F)F)cc4)cn3C)CC2)nc1 [Example 1, N-(1-Methyl-2-{[4-(5-methylpyridin-2-yl)piperazin-1-yl]-carbonyl}-1H-imidazol-4-yl)-N′-[4-trifluoromethoxyphenyl]urea dimesylate] | > 9700 | 1.8 | 0.103 | less than 0.11% | –
Cc1ccc(N2CCN(C(=O)c3nc(NC(=O)Nc4ccc(OC(F)(F)F)cc4)cn3C)CC2)nc1 [Example 9A, N-(1-Methyl-2-{[4-(5-methylpyridin-2-yl)piperazin-1-yl]carbonyl}-1H-imidazol-4-yl)-N′-[4-(trifluoromethoxy)phenyl]urea] | 4 (≈ 7.94 µM) | – | 0.065 | – | 1.5
Nc1nc(O)c2ncn(COC(CO)CO)c2n1 [Ganciclovir, reference compound] | – | – | – | – | 3200
